Experimental data as given in patent US20200190592A1, “PME-1 AS A BIOMARKER TO PREDICT AND DIAGNOSE AN INCREASED RISK OF ENDOMETRIAL CANCER AND GENE SILENCING OF PME-1 TO INHIBIT EPITHELIAL TO MESENCHYMAL TRANSITION” (Medical Diagnostic Laboratories, L.L.C., priority 2018, published 2020).
“Also recorded” adds a separate entry of the source.

Key:
Assay type in all cases: cell-based, human
phospho-Akt = assay: Western analysis of Akt phosphorylation in RL95-2 cells; conditions: PME-1 knocked down
Method: We observed a similar trend for the Akt signaling pathway. There was an increase in phosphorylation of Akt on threonine 308 (T308) when PME-1 was over-expressed compared to control. There was a decrease in phosphorylation of Akt when PME-1 was knocked down (FIG. 18B). PME-1 over-expression specifically increases the phosphorylation of Akt on T308, but not serine 473 (S473). Importantly, when cells were incubated with upstream inhibitors of Akt phosphorylation (LY294002), there was a decrease in the phospho-forms (FIGS. 18A and 18B), as expected.
(§1) 15 μg of protein was used for western analysis. PME-1 antibody (Santa Cruz) and COXIV (Cell Signaling Technologies) were used for detection of proteins and the blots were developed using chemiluminescence (Pierce ECL Western Blotting Substrate—Thermo Scientific) on the GE ImageQuant LAS 4000. For analysis of Akt, ERK, and β-catenin signaling in tissue culture, western analyses were completed as follows. RL95-2 cells stably infected with lentivirus expressing constructs were selected with puromycin (Invivogen). The cells were incubated with either 50 μM Akt inhibitor (LY 294002, Cell Signaling Technologies) or 40 μM ERK inhibitor (V0126, Cell Signaling Technologies) for 1-2 hours at 37° C. 1.5× Laemelli buffer (0.5 M Tris pH6.8, […], 10% sodium dodecyl sulfate, 100 mM EDTA) was used to prepare cell lysates. […]

PME-1 = assay: Western blot of PME-1 protein in RL95-2 cells; conditions: GAPDH loading control, listed as shRNA #2
Description: We prepared RL95-2 cell lines expressing empty vector (control), over-expressing PME-1 (+PME-1), or expressing shRNA against PPME1, the gene that codes for PME-1 protein (−PME-1). Using these cells, we confirmed the appropriate level of PME-1 via real-time RT-PCR (data not shown) and Western blot analysis (FIG. 8). GAPDH was used as a loading control.
We also prepared two different shRNAs targeted against PME-1.
Lentivirus was produced in HEK293T cell lines with pLKO shRN vectors (Thermo Scientific, cat. no. RHS4533; Waltham, Mass.) and pCDH-CuO-GFP-Puro vectors (System Biosciences, Inc., cat. no. QM513B-1; Mountain View, Calif.) with pPACKH1 packaging plasmid (System Biosciences, Inc., cat, no. LV050A-1). shRNA sequences are in the Table 2. Lentivirus was collected and concentrated with Peg-IT concentrating solution (System Biosciences, Inc.). 5×10^6 ifu/ml lentivirus was added to cell cultures with growth media and 8 μg/ml PolyBrene (Sigma Aldrich). Media was changed to full growth media after 24 hrs and to selection media containing antibiotic after 48 hrs (5 μg/ml puromycin) (Invivogen) for 10 days.
15 μg of protein was used for western analysis. […]

DcR2 = assay: Senescence assay (Western for DcR2); conditions: RL95-2 lysates, GAPDH loading control
Method: We next analyzed cell lysates taken from RL95-2 cells that expressed either empty vector (Control), overexpressed PME-1 (+PME-1) or expressed shRNA against PME-1 (−PME-1) for DcR2 protein.
as §1, with “lysates. 20 μg of protein was used for western analysis. Primary antibodies used were: P-Akt (Ser473), P-Akt (Thr308), pan-Akt, P-ERK (Thr202/204), total ERK (Cell Signaling Technologies), PME-1 (Santa Cruz), phospho-β-catenin (Ser45, Cell Signaling Technologies), phospho-β-catenin (Ser33/37/Thr41, Cell Signaling Technologies), β-catenin (Abcam), DcR2 (Abcam), and GAPDH (Abcam).” for “lysates.”

RL95-2 cells = assay: BrDU incorporation assay; conditions: compared to scrambled shRNA control set to 100%
Method: To confirm our foci formation data that altering PME-1 levels in endometrial cancer cells affect their rate of cell proliferation, we conducted a BrDU incorporation assay. BrDU is incorporated into newly synthesized DNA and can be detected with antibodies; thus, increased BrDU incorporation correlates with an increased level of proliferation.
The BrDU Incorporation assay was completed with RL95-2 cell lines in media supplemented with 2.5 μg/ml puromycin. Cells were plated at 0.5*10^4 cells per well into a 96 well dish with 0% FBS and allowed to settle for 24 hours. The assay was completed as per kit instructions (Roche, Cell Proliferation ELISA, BrdU colorimetric cat. #11647229001). Briefly, 10 uM BrdU was added to the cells, 24 hours later cells were fixed and denatured with FixDenat from the kit and allowed to incubate with anti-BrdU antibody for up to two hours. Following the incubation and addition of the kit substrate, absorbances were read using FluoStar Galaxy.

PP2A = PP2A phosphatase assay on RL95-2 whole cell extract; conditions: RL95-2 cells, 500 μg whole cell extract, vs non-targeting control
Method: Because PME-1 is a known inhibitor of PP2A, we confirmed in this study that depletion of PME-1 by siRNA led to an increase in PP2A activity in cells. To do so, we treated RL95-2 cells with either non-targeting siRNA (Control) or siRNA against PPME1. PP2A activity was monitored using a phosphatase assay (R&D Systems Duo IC Set phosphatase assay kit). In the phosphatase assay, we used 500 μg of whole cell extract and followed the manufacturer's recommendations.
Whole cell lysates were used with the DuoSet IC PP2A Phosphatase Assay Kit (R&D Systems). Procedure was carried out as per kit instructions with 500 μg protein and the absorbance was measured at 620 nm. The assay was repeated twice with similar results.

ECC-1 cells = assay: Foci formation analysis in ECC-1 cells; conditions: 10 days
Method: We performed a foci formation analysis by transfecting (i) empty FLAG vector, (ii) FLAG-PPP2CA, (iii) FLAG-PPP4C, or (iv) FLAG-PPP6C into ECC-1 cells that stably expressed either (i) shSCR (non-targeting shRNA, black bars) or (ii) shPPME1 (depletes PME-1 levels, white bars) (FIG. 24).
1,000 cells were plated in a six well tissue culture dish in selection media (to include 5 μg/ml puromycin) (InvivoGen). Cells were allowed to adhere and grow in a 5% CO2, 37° C. incubator for 10 to 14 days. Media was replaced every fourth day. Cells were stained with 1% crystal violet (Sigma Aldrich) for five minutes and rinsed with PBS. Colonies were counted and data is presented as the percentage of change compared to the control. All Experiments were repeated at least three times.

For “shPPME1 no. 2: shRNA targeting PPME1, SEQ ID NO: 2: GCAGCGATTATTAGTAGAGTT, bp 289-309; used for all subsequent experiments (guide GCAGCGATTATTAGTAGAGTT; listed as Homo sapiens)”, the “phosphorylation of Akt” value (phospho-Akt) was “decrease”, the “PME-1 levels via Western blot analysis” value (PME-1) was “significantly decreased; also recorded: best depletion” and the “senescent marker protein DcR2” value (DcR2) was “increase”. For the same substance, the “decrease in BrDU incorporation” value (RL95-2 cells) was 40%, the “increase in PP2A activity” value (PP2A) was 30 fold and the foci formation (ECC-1 cells; ECC-1, empty FLAG vector, vs shSCR control) was “significant decrease”. The foci formation (ECC-1 cells; ECC-1 transfected with PP2A, PP4 or PP6, vs shSCR) was “significant decrease”.
